Measured values as given in patent publication US6476008B1, “Use of diphosphonic acids or the physiologically acceptable salts or esters thereof in the preventive treatment of after-effects resulting from enlargement or replacement of the bladder” (Roche Diagnostics GmbH, priority 1997, dated 2002).

Columns and labels:
[1] = tested on: female Sprague-Dawley rats augmented with excluded sigma; assay: Prevention of osteopenia after bladder augmentation plasty, bone density by DEXA; assay type: in vivo, rat; settings: daily s.c. ibandronic acid up to 20 μg P/kg, 4 months, monthly DEXA
Text: Preventive effect of diphosphonates before the occurrence of osteopenia after augmentation plasty. Groups of 12 female Sprague-Dawley rats (6-8 week old, about […] body weight) were provided with stomach and ileum augmentation plasties and 12 animals were dummy-operated. At the same time, 24 animals were augmented with excluded sigma and divided at random into two groups, one group daily receiving a subcutaneous application of 0.9% NaCl (control) and the other group a daily subcutaneous application of ibandronic acid in the form of an aqueous solution in a dose up to 20 μg P/kg. The operative configuration of the augmentation plasties was after Lauvetz et al (J. Urol. 154: 899-902, 1995). The test period was 4 months, corresponding to about 4 years of human life (E. Grimm, Amer. J. Dig Dis. 7: 17-20, 1962).

[2] = tested on: rats with chronic kidney insufficiency and augmentation using gastrointestinal segments; assay: Chronic kidney insufficiency plus augmentation plasty, bone mass; assay type: in vivo, rat; settings: rats with CNI (5/6 nephrectomy) and augmentation plasty, ibandronate administration
Text: In order to increase the clinical relevance of the results, the test procedure of Example 2 was repeated on rats with chronic kidney insufficiency. This test arrangement is based on a frequent situation among human beings in which a bladder previously damaged by an existing disturbance in urine transport (reflux or obstruction) leads to kidney insufficiency as a secondary result. It is known that kidney insufficiency in itself results in a disturbance in bone mineralisation (renal osteopathy), so that the need for a bladder extension plasty using segments of intestine further increases the risk of disturbed mineralisation. Kidney insufficiency was induced by 5/6 nephrectomy (compare Example 2). The other test procedure was as in Example 1.

**Q.** Which “reduction in bone mass (DEXA bone density, lumbar vertebrae)” value [1] does the source give for CCCCCN(C)CCC(O)(P(=O)(O)O)P(=O)(O)O [ibandronate, 1-hydroxy-3-(N-methyl-N-pentyl)aminopropylidene-1,1-diphosphonic acid] here?
**A.** Its value is “no reduction in bone mass”.

**Q.** What about the “reduction in bone mass” value [2] of the same compound?
**A.** The value was “reduction in bone mass was prevented”.
